A short description of the test: T. brucei MetRS enzyme inhibitors, late-stage follow-up, biochemical, radioactivity, assay provider, round 2 (AID 1053198). Conditions: purified enzyme, radiolabel aminoacylation, 120 min, stronger effect = higher value.

Among the data in PubChem BioAssay AID1053198 (The Scripps Research Institute Molecular Screening Center, 2014) are inhibition values, retold here.

Calls of active or inactive are those of the source. No rule for the calls is given here.

As usually defined, the inhibition is the change of the read-out against control, counted positive when it falls. For `CCN(CC)C(=O)C(=O)c1cn(CC(=O)Nc2cc(C(F)(F)F)cc(C(F)(F)F)c2)c2ccccc12`, the inhibition was 100% (at 10 µM) and 90.3% (inhibition, at 1 µM).

`CCN(CC)C(=O)C(=O)c1cn(CC(=O)Nc2cc(C)cc(C(F)(F)F)c2)c2ccccc12`: the inhibition is 100% (at 10 µM) and 96.2% (inhibition, at 1 µM).

On to `CCN(CC)C(=O)C(=O)c1cn(CC(=O)Nc2cccc(C(F)(F)F)c2)c2cc(OC)ccc12`, for which the inhibition is 4.41% (inactive) (at 10 µM) and -4.41% (inhibition, at 1 µM).

`CCN(CC)C(=O)C(=O)c1cn(CC(=O)Nc2cc(Oc3ccccc3)cc(C(F)(F)F)c2)c2ccccc12`: the inhibition reads like this: (at 10 µM) 98.3%; (inhibition, at 1 µM) 95.6%.

For the compound `CCN(CC)C(=O)C(=O)c1cn(CC(=O)Nc2cc(Cl)cc(C(F)(F)F)c2)c2ccccc12`, the inhibition (at 10 µM) was 100% and the inhibition (inhibition, at 1 µM) came out at 95.2%.

Consider `CCN(CC)C(=O)C(=O)c1cn(CC(=O)Nc2cc(Br)cc(C(F)(F)F)c2)c2ccccc12`, for which the inhibition by setting is: (at 10 µM) 101%; (inhibition, at 1 µM) 95.8%.
